Ends that are not written are not given here.
Test: Circular dichroism secondary structure content (CONTINLL)
Assay type: physicochemical
Conditions: CD, 25 °C
Procedure: The purified peptides (0.6 mg/mL) were dissolved in deionized water or 50 mM SDS and introduced into the circular dichroism (CD) spectrophotometer (JASCO Corporation, Tokyo, Japan). A 1 mm quartz cell was used for the measurement. The CD spectra were collected at 25 °C in the wavelength between 190 and 260 nm with a scanning speed of 100 nm/min, a bandwidth of 1.0 nm, and a data resolution of 0.1 nm. Each experiment was performed in three replications, and the background spectrum of the corresponding solvent was subtracted from the peptide spectrum. The content of the secondary structure of the peptides was calculated using the CONTINLL program.

VVVNVLVKVLPPPVV [Peptide P1]
Random (0.6 mg/mL in 50 mM SDS): 34.6% | Turn (0.6 mg/mL in 50 mM SDS): 10.6% | α-Helix (0.6 mg/mL in 50 mM SDS): 25.5% | β-Strand (0.6 mg/mL in 50 mM SDS): 29.3% | Random (0.6 mg/mL in H2O): 32.4% | Turn (0.6 mg/mL in H2O): 19.5% | α-Helix (0.6 mg/mL in H2O): 4.1% | β-Strand (0.6 mg/mL in H2O): 44.0%

— publication PMC9738727, “Purification and Characterization of Novel Anti-MRSA Peptides Produced by Brevibacillus sp. SPR-20” (Molecules, 2022)
